In publication PMC7281072 (Cancers, 2020):

Key:
[1] = system: SKOV-3 human ovarian adenocarcinoma xenograft; parameters: species or system CB17 SCID mice; details: mouse, in vivo, ip
[2] = system: OVCAR-5 human ovarian adenocarcinoma xenograft; parameters: species or system CB17 SCID mice; details: mouse, in vivo
pAKT [3] = test: Western immunoblotting densitometry, pAKT, OVCAR-3 cells; type: cell-based, human; details: 25 μM; for ratio [pAKT]/[GAPDH] band intensity: OVCAR-3 cells; for ratio [pAKT]/[GAPDH] band intensity, single blot (panel A): panel A upper set, cell line not given, control ratio 1.21
pERK1,2 [4] = test: Western immunoblotting densitometry, pERK1,2, OVCAR-3 cells; type: cell-based, human; details: 25 μM; for ratio [pERK1+pERK2]/[GAPDH] band intensity: OVCAR-3 cells; for ratio [pERK1+pERK2]/[GAPDH] band intensity, single blot (panel A): panel A upper set, cell line not given
pAKT [5] = test: Western immunoblotting densitometry, pAKT, SKOV-3 cells; type: cell-based, human; details: 25 μM; for ratio [pAKT]/[GAPDH] band intensity: SKOV-3 cells; for ratio [pAKT]/[GAPDH] band intensity, single blot (panel A): panel A lower set, cell line not given, control ratio 0.996
pERK1,2 [6] = test: Western immunoblotting densitometry, pERK1,2, SKOV-3 cells; type: cell-based, human; details: 25 μM; for ratio [pERK1+pERK2]/[GAPDH] band intensity: SKOV-3 cells; for ratio [pERK1+pERK2]/[GAPDH] band intensity, single blot (panel A): panel A lower set, cell line not given
OVCAR-3 cancer cell line [7] = system: OVCAR-3 cancer cell line
OVCAR-5 cancer cell line [8] = system: OVCAR-5 cancer cell line
SK-OV-3 cancer cell line [9] = system: SK-OV-3 cancer cell line
[10] = system: UWB1.289 cancer cell line
[11] = system: UWB1.289+BRCA1 cancer cell line
CB17 SCID mice = details: both, mouse, in vivo, ip
OVCAR-3 cancer cell line [12] = test: cells; details: Homo sapiens, OVCAR-3, 48 h
OVCAR-5 cancer cell line [13] = test: cells; details: Homo sapiens, OVCAR-5, 48 h
SK-OV-3 cancer cell line [14] = test: cells; details: Homo sapiens, SK-OV-3, 48 h
[15] = system: UWB1.289+BRCA1 cancer cell line; test: cells; details: Homo sapiens, 48 h
[16] = read-out: GI50 (50% Growth Inhibition)
[17] = read-out: IC50 (cytotoxic effect)

`C[C@]12CC[C@@H]3c4ccc(OC(=O)CCOc5ccc(N(CCCl)CCCl)cc5)cc4CC[C@H]3[C@@H]1CCC(=O)N2` [ENGA-L08E, 12a-methyl-2-oxo-1,2,3,4,4a,4b,5,6,10b,11,12,12a-dodecahydronaphtho[2,1-f]quinolin-8-yl 3-(4-(bis (2-chloroethyl)amino)phenoxy) propanoate] was tested, and the “TI% (Tumor Inhibition)” value [1] was 76.4%, the “size of the primary tumor” value [1] was 390 ± 21.4 mm^3 and the “Median Overall Survival (OS)” value [2] was 127 days. The “Progression Free Survival (PFS)” value [2] was 34 days, the “Response Rate (RR)” value [2] was 100% and the “Cures (mice alive for 120 days after tumor inoculation)” value ([2]; ip) was 3/5. For the same compound, the “MST (mean survival time)” value ([2]; ip) was 94.8 ± 6.3 p < 0.01 Days, the “T/C% (mean survival time of treated versus saline controls)” value ([2]; ip) was 187.8% and the “TI% (Tumor Inhibition)” value ([2]; ip) was 131.0%. For the same compound, the “size of the primary tumor” value ([2]; ip) was 113 ± 14 mm^3, the “ratio [pAKT]/[GAPDH] band intensity” value (pAKT [3]; 30min, control ratio 1.23) was 0.93 and the “ratio [pAKT]/[GAPDH] band intensity” value (pAKT [3]; 1h, control ratio 1.14) was 0.60. The “ratio [pAKT]/[GAPDH] band intensity” value (pAKT [3]; 3h, control ratio 1.27) was 0.52, the “ratio [pAKT]/[GAPDH] band intensity” value (pAKT [3]; 6h, control ratio 1.26) was 0.47 and the “ratio [pAKT]/[GAPDH] band intensity” value (pAKT [3]; 12h, control ratio 1.18) was 0.48. For the same compound, the “ratio [pAKT]/[GAPDH] band intensity” value (pAKT [3]; 24h, control ratio 1.29) was 0.54, the “ratio [pAKT]/[GAPDH] band intensity, single blot (panel A)” value (pAKT [3]; 1h) was 0.40 and the “ratio [pAKT]/[GAPDH] band intensity, single blot (panel A)” value (pAKT [3]; 3h) was 0.34. For the same compound, the “ratio [pERK1+pERK2]/[GAPDH] band intensity” value (pERK1,2 [4]; 30min, control ratio 1.71) was 1.01, the “ratio [pERK1+pERK2]/[GAPDH] band intensity” value (pERK1,2 [4]; 1h, control ratio 1.65) was 0.94 and the “ratio [pERK1+pERK2]/[GAPDH] band intensity” value (pERK1,2 [4]; 3h, control ratio 1.99) was 0.83. For the same compound, the “ratio [pERK1+pERK2]/[GAPDH] band intensity” value (pERK1,2 [4]; 6h, control ratio 1.85) was 0.76, the “ratio [pERK1+pERK2]/[GAPDH] band intensity” value (pERK1,2 [4]; 12h, control ratio 1.82) was 0.76 and the “ratio [pERK1+pERK2]/[GAPDH] band intensity” value (pERK1,2 [4]; 24h, control ratio 1.92) was 0.84. For the same compound, the “ratio [pERK1+pERK2]/[GAPDH] band intensity, single blot (panel A)” value (pERK1,2 [4]; 1h, control ratio 1.85) was 0.51, the “ratio [pERK1+pERK2]/[GAPDH] band intensity, single blot (panel A)” value (pERK1,2 [4]; 3h, control ratio 1.85) was 0.28 and the “ratio [pAKT]/[GAPDH] band intensity” value (pAKT [5]; 15min, control ratio 0.98) was 1.04. For the same compound, the “ratio [pAKT]/[GAPDH] band intensity” value (pAKT [5]; 30min, control ratio 0.98) was 0.66, the “ratio [pAKT]/[GAPDH] band intensity” value (pAKT [5]; 1h, control ratio 1.02) was 0.63 and the “ratio [pAKT]/[GAPDH] band intensity” value (pAKT [5]; 3h, control ratio 0.99) was 0.52. The “ratio [pAKT]/[GAPDH] band intensity” value (pAKT [5]; 12h, control ratio 0.94) was 0.50, the “ratio [pAKT]/[GAPDH] band intensity, single blot (panel A)” value (pAKT [5]; 1h) was 0.22 and the “ratio [pAKT]/[GAPDH] band intensity, single blot (panel A)” value (pAKT [5]; 3h) was 0.20. For the same compound, the “ratio [pERK1+pERK2]/[GAPDH] band intensity” value (pERK1,2 [6]; 15min, control ratio 1.70) was 1.89, the “ratio [pERK1+pERK2]/[GAPDH] band intensity” value (pERK1,2 [6]; 30min, control ratio 1.70) was 1.61 and the “ratio [pERK1+pERK2]/[GAPDH] band intensity” value (pERK1,2 [6]; 1h, control ratio 1.78) was 1.08. For the same compound, the “ratio [pERK1+pERK2]/[GAPDH] band intensity” value (pERK1,2 [6]; 3h, control ratio 1.74) was 0.89, the “ratio [pERK1+pERK2]/[GAPDH] band intensity” value (pERK1,2 [6]; 12h, control ratio 1.61) was 0.85 and the “ratio [pERK1+pERK2]/[GAPDH] band intensity, single blot (panel A)” value (pERK1,2 [6]; 1h, control ratio 1.78) was 0.54. The “ratio [pERK1+pERK2]/[GAPDH] band intensity, single blot (panel A)” value (pERK1,2 [6]; 3h, control ratio 1.78) was 0.49, the “TGI (Total Growth Inhibition)” value (OVCAR-3 cancer cell line [7]) was 40 ± 2.7 μΜ and the “TGI (Total Growth Inhibition)” value (OVCAR-5 cancer cell line [8]) was 60 ± 2.7 μΜ. For the same compound, the “TGI (Total Growth Inhibition)” value (SK-OV-3 cancer cell line [9]) was 76 ± 7.2 μΜ, the “TGI (Total Growth Inhibition)” value [10] was 20 ± 1.5 μΜ and the “TGI (Total Growth Inhibition)” value [11] was 76 ± 7.2 μΜ. The LD10 (CB17 SCID mice) was 75 mg/kg, the GI50 (OVCAR-3 cancer cell line [12]; [16]) was 30 ± 2.1 µM and the IC50 (OVCAR-3 cancer cell line [12]; [17]) was 56 ± 3.2 µM. For the same compound, the GI50 (OVCAR-5 cancer cell line [13]; [16]) was 11 ± 0.6 µM, the IC50 (OVCAR-5 cancer cell line [13]; [17]) was 92 ± 8.4 µM and the GI50 (SK-OV-3 cancer cell line [14]; [16]) was 10 ± 0.5 µM. The IC50 (SK-OV-3 cancer cell line [14]; [17]) was over 100 µM, the GI50 [15, 16] was 18 ± 1 µM and the IC50 [15, 17] was 88 ± 8.1 µM.
